Assay results: US5602101A, “Antithrombotic agents” (priority 1994, dated 1997)
Non-standard residues stand in square brackets, D forms with d. Residues, ends and D or L forms follow the SMILES beside them. dCha = N[C@H](CC1CCCCC1)C(=O)O

Biological target: T1, human thrombin (Homo sapiens, UniProt P00734)
T1 construct: purified human thrombin Enzyme Research Laboratories, South Bend, Ind; purchased Enzyme Research Laboratories, South Bend, Ind
Assay: Inhibition of amidase activity of thrombin (chromogenic substrate), Kass
Format: biochemical
Conditions: substrate N-benzoyl-Phe-Val-Arg-p-nitroanilide, pH 7.4
Method in brief: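 Human thrombin (8 NIH units/ml solution) with compound in 0.03M Tris, 0.15M NaCl, pH 7.4; chromogenic substrate hydrolysis followed at 405 nm. Free thrombin from standard curves gives bound enzyme and free inhibitor; Kass, an association equilibrium constant in L/mol, averaged over a compound concentration range.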

Row | Compound | Enzyme Kass, Human Thrombin [L/mol × 10^6]
1 | CCS(=O)(=O)N[C@H](CC1CCCCC1)C(=O)N1CCC[C@H]1C(=O)N[C@H](C=O)CCCNC(=N)N.Cl [Example 21, EtSO2 -D-Cha-Pro-Arg-H.HCl] | 550
2 | CC(=O)N[C@H](CC1CCCCC1)C(=O)N1CCC[C@H]1C(=O)N[C@H](C=O)CCCNC(=N)N.Cl [Example 28, Ac-D-Cha-Pro-Arg-H.HCl] (Ac-[dCha]-Pro-Arg-aldehyde) | 26

Test system: not given
Assay: not given
Conditions: rat, in vivo

Row | Compound | Index of Bioavailability, % Relative Activity [%]
3 | CCS(=O)(=O)N[C@H](CC1CCCCC1)C(=O)N1CCC[C@H]1C(=O)N[C@H](C=O)CCCNC(=N)N.Cl [Example 21, EtSO2 -D-Cha-Pro-Arg-H.HCl] | 19
4 | CC(=O)N[C@H](CC1CCCCC1)C(=O)N1CCC[C@H]1C(=O)N[C@H](C=O)CCCNC(=N)N.Cl [Example 28, Ac-D-Cha-Pro-Arg-H.HCl] (Ac-[dCha]-Pro-Arg-aldehyde) | 9

Biological target: T2, tissue plasminogen activator (t-PA) (Homo sapiens, UniProt P00750)
T2 construct: purchased American Diagnostics, Greenwich, Conn
T2 sequence (P00750 36-562): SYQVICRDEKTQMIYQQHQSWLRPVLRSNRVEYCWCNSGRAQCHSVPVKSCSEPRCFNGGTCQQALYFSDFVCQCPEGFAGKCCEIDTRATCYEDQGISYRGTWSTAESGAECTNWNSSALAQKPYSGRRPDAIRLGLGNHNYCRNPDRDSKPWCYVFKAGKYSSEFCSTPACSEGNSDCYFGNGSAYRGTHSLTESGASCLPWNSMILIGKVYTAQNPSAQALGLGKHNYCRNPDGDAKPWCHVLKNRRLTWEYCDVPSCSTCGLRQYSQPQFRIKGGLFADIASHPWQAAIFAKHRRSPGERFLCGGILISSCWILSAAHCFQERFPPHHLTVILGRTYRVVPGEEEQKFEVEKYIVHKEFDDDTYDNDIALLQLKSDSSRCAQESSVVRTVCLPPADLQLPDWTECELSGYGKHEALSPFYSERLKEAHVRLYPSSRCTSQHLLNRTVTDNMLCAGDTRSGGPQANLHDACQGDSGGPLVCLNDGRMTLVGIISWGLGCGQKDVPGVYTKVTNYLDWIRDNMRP
Assay: Serine protease inhibition, t-PA (chromogenic substrate), Kass
Format: biochemical
Conditions: substrate H-D-Ile-Pro-Arg-p-nitroanilide
Method in brief: (§1)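 Enzyme mixed with test compound in 0.03M Tris, 0.15M NaCl, pH 7.4, then p-nitroanilide substrate added (Bz-Ile-Glu-Gly-Arg-pNA for factor Xa; Bz-Phe-Val-Arg-pNA for trypsin; H-D-Ile-Pro-Arg-pNA for t-PA; H-D-Val-Leu-Lys-pNA for plasmin); hydrolysis followed at 405 nm. Free enzyme from standard curves gave bound enzyme and free inhibitor; Kass (L/mol) averaged over several compound concentrations.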

Row | Compound | Enzyme Kass, t-Pa [L/mol × 10^6]
5 | CCS(=O)(=O)N[C@H](CC1CCCCC1)C(=O)N1CCC[C@H]1C(=O)N[C@H](C=O)CCCNC(=N)N.Cl [Example 21, EtSO2 -D-Cha-Pro-Arg-H.HCl] | 0.73
6 | CC(=O)N[C@H](CC1CCCCC1)C(=O)N1CCC[C@H]1C(=O)N[C@H](C=O)CCCNC(=N)N.Cl [Example 28, Ac-D-Cha-Pro-Arg-H.HCl] (Ac-[dCha]-Pro-Arg-aldehyde) | 0.035

Test system: Human Plasma
Assay: Anticoagulation in human plasma, prothrombin time (PT)
Format: biochemical
Conditions: concentration required to double the PT
Method in brief: (§2)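 Compounds were added to human plasma over a range of concentrations. PT used Thromboplastin-C reagent with saline; APTT used a 120-second Actin preincubation followed by 0.02M CaCl2, and TT used bovine thrombin. Clotting times were read on a CoAScreener, and the concentration doubling clotting time was estimated by linear extrapolation.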

Row | Compound | 2 × Clotting time, PT
7 | CCS(=O)(=O)N[C@H](CC1CCCCC1)C(=O)N1CCC[C@H]1C(=O)N[C@H](C=O)CCCNC(=N)N.Cl [Example 21, EtSO2 -D-Cha-Pro-Arg-H.HCl] | 730 ng/mL
8 | CC(=O)N[C@H](CC1CCCCC1)C(=O)N1CCC[C@H]1C(=O)N[C@H](C=O)CCCNC(=N)N.Cl [Example 28, Ac-D-Cha-Pro-Arg-H.HCl] (Ac-[dCha]-Pro-Arg-aldehyde) | 3,500 ng/ML

Test system: Human Plasma
Assay: Anticoagulation in human plasma, activated partial thromboplastin time (APTT)
Format: biochemical
Conditions: concentration required to double the APTT
Method in brief: as §2

Row | Compound | 2 × Clotting time, APTT
9 | CCS(=O)(=O)N[C@H](CC1CCCCC1)C(=O)N1CCC[C@H]1C(=O)N[C@H](C=O)CCCNC(=N)N.Cl [Example 21, EtSO2 -D-Cha-Pro-Arg-H.HCl] | 260 ng/mL
10 | CC(=O)N[C@H](CC1CCCCC1)C(=O)N1CCC[C@H]1C(=O)N[C@H](C=O)CCCNC(=N)N.Cl [Example 28, Ac-D-Cha-Pro-Arg-H.HCl] (Ac-[dCha]-Pro-Arg-aldehyde) | 1,900 ng/ML

Biological target: T3, Human plasmin (Homo sapiens, UniProt P00747)
T3 construct: Human plasmin is purchased from Boehringer Mannheim, Indianapolis, Ind; purchased Boehringer Mannheim, Indianapolis, Ind
T3 sequence (P00747 581-810 limits assumed): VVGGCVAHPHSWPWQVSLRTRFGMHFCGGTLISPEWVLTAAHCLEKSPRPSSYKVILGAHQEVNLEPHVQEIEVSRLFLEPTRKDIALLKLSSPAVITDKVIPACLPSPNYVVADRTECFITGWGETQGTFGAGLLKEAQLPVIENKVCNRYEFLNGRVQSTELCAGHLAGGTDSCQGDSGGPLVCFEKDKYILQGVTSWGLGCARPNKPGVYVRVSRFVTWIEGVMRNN
T3 sequence (P00747 97-580 partner limits assumed): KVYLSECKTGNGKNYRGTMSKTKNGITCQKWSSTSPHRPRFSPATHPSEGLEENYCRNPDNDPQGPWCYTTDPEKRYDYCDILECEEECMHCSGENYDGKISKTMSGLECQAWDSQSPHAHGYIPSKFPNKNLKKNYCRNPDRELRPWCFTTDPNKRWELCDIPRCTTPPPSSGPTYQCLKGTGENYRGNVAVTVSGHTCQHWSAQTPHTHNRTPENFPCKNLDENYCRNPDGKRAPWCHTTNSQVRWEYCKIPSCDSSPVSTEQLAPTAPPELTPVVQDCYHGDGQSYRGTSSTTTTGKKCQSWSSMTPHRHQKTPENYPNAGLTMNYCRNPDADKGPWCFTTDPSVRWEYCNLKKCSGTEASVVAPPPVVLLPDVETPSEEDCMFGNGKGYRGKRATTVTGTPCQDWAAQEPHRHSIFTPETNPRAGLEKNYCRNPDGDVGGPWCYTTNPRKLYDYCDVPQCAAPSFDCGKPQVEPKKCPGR
Assay: Serine protease inhibition, plasmin (chromogenic substrate), Kass
Format: biochemical
Conditions: substrate H-D-Val-Leu-Lys-p-nitroanilide
Method in brief: as §1

Row | Compound | Enzyme Kass, Plasmin [L/mol × 10^6]
11 | CCS(=O)(=O)N[C@H](CC1CCCCC1)C(=O)N1CCC[C@H]1C(=O)N[C@H](C=O)CCCNC(=N)N.Cl [Example 21, EtSO2 -D-Cha-Pro-Arg-H.HCl] | 45
12 | CC(=O)N[C@H](CC1CCCCC1)C(=O)N1CCC[C@H]1C(=O)N[C@H](C=O)CCCNC(=N)N.Cl [Example 28, Ac-D-Cha-Pro-Arg-H.HCl] (Ac-[dCha]-Pro-Arg-aldehyde) | 0.61

Biological target: T4, Bovine trypsin (Bos taurus, UniProt P00760)
T4 construct: Bovine trypsin is purchased from Worthington Biochemicals, Freehold, N.J; purchased Worthington Biochemicals, Freehold, N.J
T4 sequence (P00760 24-246): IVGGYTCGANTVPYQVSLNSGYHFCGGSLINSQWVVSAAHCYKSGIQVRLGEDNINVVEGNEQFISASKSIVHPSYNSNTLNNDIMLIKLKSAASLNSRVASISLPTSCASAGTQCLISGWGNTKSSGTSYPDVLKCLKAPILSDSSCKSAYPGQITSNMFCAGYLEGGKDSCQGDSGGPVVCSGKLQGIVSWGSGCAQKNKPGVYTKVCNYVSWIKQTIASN
Assay: Serine protease inhibition, trypsin (chromogenic substrate), Kass
Format: biochemical
Conditions: substrate N-Benzoyl-Phe-Val-Arg-p-nitroanilide
Method in brief: as §1

Row | Compound | Enzyme Kass, Trypsin [L/mol × 10^6]
13 | CCS(=O)(=O)N[C@H](CC1CCCCC1)C(=O)N1CCC[C@H]1C(=O)N[C@H](C=O)CCCNC(=N)N.Cl [Example 21, EtSO2 -D-Cha-Pro-Arg-H.HCl] | 200
14 | CC(=O)N[C@H](CC1CCCCC1)C(=O)N1CCC[C@H]1C(=O)N[C@H](C=O)CCCNC(=N)N.Cl [Example 28, Ac-D-Cha-Pro-Arg-H.HCl] (Ac-[dCha]-Pro-Arg-aldehyde) | 12

Test system: Human Plasma
Assay: Anticoagulation in human plasma, thrombin time (TT)
Format: biochemical
Conditions: concentration required to double the thrombin time
Method in brief: as §2

Row | Compound | 2 × Clotting time, TT [ng/mL]
15 | CCS(=O)(=O)N[C@H](CC1CCCCC1)C(=O)N1CCC[C@H]1C(=O)N[C@H](C=O)CCCNC(=N)N.Cl [Example 21, EtSO2 -D-Cha-Pro-Arg-H.HCl] | 25
16 | CC(=O)N[C@H](CC1CCCCC1)C(=O)N1CCC[C@H]1C(=O)N[C@H](C=O)CCCNC(=N)N.Cl [Example 28, Ac-D-Cha-Pro-Arg-H.HCl] (Ac-[dCha]-Pro-Arg-aldehyde) | 92

Biological target: T5, factor Xa (Homo sapiens, UniProt P00742)
T5 construct: Human factors X, Xa, IXa, XIa, and xIIa are purchased from Enzyme Research Laboratories; purchased Enzyme Research Laboratories, South Bend, Ind
T5 sequence (P00742 235-488 limits assumed): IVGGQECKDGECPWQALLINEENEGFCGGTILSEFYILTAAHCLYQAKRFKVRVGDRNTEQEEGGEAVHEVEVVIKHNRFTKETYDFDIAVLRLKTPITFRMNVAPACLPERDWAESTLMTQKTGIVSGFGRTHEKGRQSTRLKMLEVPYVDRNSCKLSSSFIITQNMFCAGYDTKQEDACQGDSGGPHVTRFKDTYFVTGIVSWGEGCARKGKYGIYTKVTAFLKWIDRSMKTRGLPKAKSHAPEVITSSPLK
T5 sequence (P00742 41-179 partner limits assumed): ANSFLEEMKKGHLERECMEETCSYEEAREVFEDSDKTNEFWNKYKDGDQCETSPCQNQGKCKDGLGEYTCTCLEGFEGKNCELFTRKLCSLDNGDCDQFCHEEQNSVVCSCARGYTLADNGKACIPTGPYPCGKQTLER
Assay: Serine protease inhibition, factor Xa (chromogenic substrate), Kass
Format: biochemical
Conditions: substrate N-Benzoyl-Ile-Glu-Gly-Arg-p-nitroanilide
Method in brief: as §1

Row | Compound | Enzyme Kass, Xa [L/mol × 10^6]
17 | CCS(=O)(=O)N[C@H](CC1CCCCC1)C(=O)N1CCC[C@H]1C(=O)N[C@H](C=O)CCCNC(=N)N.Cl [Example 21, EtSO2 -D-Cha-Pro-Arg-H.HCl] | 20
18 | CC(=O)N[C@H](CC1CCCCC1)C(=O)N1CCC[C@H]1C(=O)N[C@H](C=O)CCCNC(=N)N.Cl [Example 28, Ac-D-Cha-Pro-Arg-H.HCl] (Ac-[dCha]-Pro-Arg-aldehyde) | 1.1
